Data from ChEMBL document CHEMBL4024731, “Cytotoxic steroidal saponins from Trillium kamtschaticum” (Bioorg Med Chem Lett, 2017).

Tested on: HCT-116
Experiment: Cytotoxicity against human HCT116 cells after 48 hrs by MTT assay
Assay type: functional, cell-based
Conditions: HCT-116, 48 h

Row | SMILES | IC50 [µM]
1 | CC(=O)OC[C@H]1[C@@H]2C3=C(C(=O)[C@@H]2O[C@@]12OC[C@H](C)[C@@H](O)[C@@H]2O)[C@@H]1CC=C2C[C@@H](O)C[C@@H](O[C@@H]4OC[C@H](O)[C@H](O)[C@H]4O[C@@H]4O[C@@H](C)[C@H](OC(C)=O)[C@@H](O[C@@H]5OC[C@](O)(CO)[C@H]5O)[C@H]4O)[C@]2(C)[C@H]1CC3 | 4.92
2 | C/C(C(=O)CC[C@@H](C)CO[C@@H]1O[C@H](CO)[C@@H](O)[C@H](O)[C@H]1O)=C1/C(=O)C[C@H]2[C@@H]3CC=C4C[C@@H](O[C@@H]5O[C@H](CO)[C@@H](O[C@@H]6O[C@@H](C)[C@H](O)[C@@H](O)[C@H]6O)[C@H](O)[C@H]5O)CC[C@]4(C)[C@H]3CC[C@]12C | 17.3
3 | CC(=O)O[C@H]1[C@@H](C)CO[C@@]2(O[C@H]3C(=O)C4=C(CC[C@H]5[C@H]4CC=C4C[C@@H](O)C[C@@H](O[C@@H]6OC[C@H](O)[C@H](O[C@@H]7OC[C@@H](O)[C@H](O)[C@H]7O)[C@H]6O[C@@H]6O[C@@H](C)[C@H](O)[C@@H](O[C@@H]7OC[C@](O)(CO)[C@H]7O)[C@H]6O)[C@@]45C)[C@H]3[C@@H]2CO)[C@H]1O | 5.84
4 | CC1=C2[C@](O)(C[C@H]3[C@@H]4CC=C5C[C@@H](O[C@@H]6O[C@H](CO)[C@@H](O[C@@H]7O[C@@H](C)[C@H](O)[C@@H](O)[C@H]7O)[C@H](O)[C@H]6O[C@@H]6O[C@@H](C)[C@H](O)[C@@H](O)[C@H]6O)CC[C@]5(C)[C@H]4CC[C@]23C)[C@@H](C[C@@H](C)CO[C@@H]2O[C@H](CO)[C@@H](O)[C@H](O)[C@H]2O)C1=O | > 40
5 | Cc1c(CCC(C)CO)ccc2c1[C@@]1(C)CC[C@H]3[C@@H](CC=C4C[C@@H](O[C@@H]5O[C@H](CO)[C@@H](O)[C@H](O)[C@H]5O[C@@H]5O[C@@H](C)[C@H](O)[C@@H](O)[C@H]5O)CC[C@@]43C)[C@@H]1C2 (stereo not given in full) | > 40
6 | C[C@@H]1O[C@@H](O[C@H]2[C@H](O[C@H]3CC[C@@]4(C)C(=CC[C@@H]5[C@@H]4CC[C@]4(C)C(=O)OC[C@@H]54)C3)O[C@H](CO)[C@@H](O)[C@@H]2O)[C@H](O)[C@H](O)[C@H]1O | > 40
7 | COC(=O)/C(C)=C1\C(=O)C[C@H]2[C@@H]3CC=C4C[C@@H](O[C@@H]5O[C@H](CO)[C@@H](O)[C@H](O)[C@H]5O[C@@H]5O[C@@H](C)[C@H](O)[C@@H](O)[C@H]5O)CC[C@]4(C)[C@H]3CC[C@]12C | > 40
8 | CC(=O)OC[C@H]1[C@@H]2C3=C(C(=O)[C@@H]2O[C@@]12OC[C@H](C)[C@@H](O)[C@@H]2O)[C@@H]1CC=C2C[C@@H](O)C[C@@H](O[C@@H]4OC[C@H](O)[C@H](O[C@@H]5OC[C@@H](O)[C@H](O)[C@H]5O)[C@H]4O[C@@H]4O[C@@H](C)[C@H](O)[C@@H](O[C@@H]5OC[C@](O)(CO)[C@H]5O)[C@H]4O)[C@]2(C)[C@H]1CC3 | 22.5
9 | C/C(C(=O)CC[C@@H](C)CO[C@@H]1O[C@H](CO)[C@@H](O)[C@H](O)[C@H]1O)=C1/C(=O)C[C@H]2C3CC=C4C[C@@H](O[C@@H]5O[C@H](CO)[C@@H](O)[C@H](O)[C@H]5O[C@@H]5O[C@@H](C)[C@H](O)[C@@H](O)[C@H]5O)CC[C@]4(C)[C@H]3CC[C@]12C (single isomer, unassigned) | 12.7
10 | CC[C@@]1(O)C(=O)OCc2c1cc1n(c2=O)Cc2cc3ccccc3nc2-1 [CAMPTOTHECIN] | 0.0115
